Here are results for seven compounds from ChEMBL document CHEMBL1127733, “Aspartyl alpha-((1-phenyl-3-(trifluoromethyl)-pyrazol-5-yl)oxy)methyl ketones as interleukin-1 beta converting enzyme inhibitors. Significance of the P1 and P3 amido nitrogens for enzyme-peptide inhibitor binding” (J Med Chem, 1994).

Bounds are passed on as bounds.

For the assay, the target named is T1, Caspase-1 (Homo sapiens) (UniProt P29466).
T1 sequence (whole entry): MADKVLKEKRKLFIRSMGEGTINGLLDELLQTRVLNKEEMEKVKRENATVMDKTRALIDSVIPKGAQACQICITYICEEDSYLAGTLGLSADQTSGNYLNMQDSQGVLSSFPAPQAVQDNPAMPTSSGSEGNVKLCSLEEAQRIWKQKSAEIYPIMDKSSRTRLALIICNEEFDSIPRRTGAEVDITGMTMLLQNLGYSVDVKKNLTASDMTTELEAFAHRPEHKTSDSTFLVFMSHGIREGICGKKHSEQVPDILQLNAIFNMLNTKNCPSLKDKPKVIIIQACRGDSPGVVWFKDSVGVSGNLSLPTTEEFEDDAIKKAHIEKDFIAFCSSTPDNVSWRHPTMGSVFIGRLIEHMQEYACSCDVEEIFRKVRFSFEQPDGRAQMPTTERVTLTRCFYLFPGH
The assay can be described thus: Inhibition constant against interleukin-1-beta converting enzyme.
Consider `CC(C)[C@H](NC(=O)OCc1ccccc1)C(=O)N[C@@H](CC(=O)O)C(=O)COc1cc(C(F)(F)F)nn1-c1ccccc1`, for which the K obs / 1 was 20000 M⁻¹ s⁻¹. The value for `O=C(O)C[C@H](NC(=O)OCc1ccccc1)C(=O)COc1cc(C(F)(F)F)nn1-c1ccccc1` was 11000 M⁻¹ s⁻¹.

For the compound `CC(C)[C@H](NC(=O)OCc1ccccc1)C(=O)N1CCC[C@H]1C(=O)N[C@@H](CC(=O)O)C(=O)COc1cc(C(F)(F)F)nn1-c1ccccc1`, the K obs / 1 amounted to 116000 M⁻¹ s⁻¹.

In turn, `CC(C)[C@H](NC(=O)OCc1ccccc1)C(=O)N(C)[C@@H](C)C(=O)N[C@@H](CC(=O)O)C(=O)COc1cc(C(F)(F)F)nn1-c1ccccc1` showed a K obs / 1 of 233000 M⁻¹ s⁻¹. The value for `CC(C)[C@H](NC(=O)OCc1ccccc1)C(=O)N[C@@H](C)C(=O)N(C)[C@@H](CC(=O)O)C(=O)COc1cc(C(F)(F)F)nn1-c1ccccc1` was below 300 M⁻¹ s⁻¹; that for `CC(C)[C@H](NC(=O)OCc1ccccc1)C(=O)N1CC[C@H]1C(=O)N[C@@H](CC(=O)O)C(=O)COc1cc(C(F)(F)F)nn1-c1ccccc1` was 46200 M⁻¹ s⁻¹; that for `CC(C)[C@@H](C(=O)N[C@@H](C)C(=O)N[C@@H](CC(=O)O)C(=O)COc1cc(C(F)(F)F)nn1-c1ccccc1)N(C)C(=O)OCc1ccccc1` was 8600 M⁻¹ s⁻¹.
